The values below are quoted from earlier work in patent US20070059365A1, “Novel formulation of ropinirole” (priority 2003, published 2007).

The conditions of the data set: in vivo.

Regarding `CCCN(CCC)CCc1cccc2c1CC(=O)N2.Cl` [ropinirole, 4-(2-di-n-propylaminoethyl)-2(3H)-indolone hydrochloride], the half-life of ropinirole is 5 to 6 h.
